Laboratory results as given in patent publication US8414660B2, “Haloferax volcanii laccase and variants and fragments thereof” (University of Florida Research Foundation, Inc., priority 2009, dated 2013).
Where “and” joins values, the source holds several entries; their conditions need not be identical. Equal entries are not always repeated. Where two headings read alike, the source gives them in different places.

Assays:
[1] = target: T1, LccA isolated from Hfx. volcanii SB01 (Haloferax volcanii, UniProt D4GPK6); experiment: biochemical; details: for Inhibition of observed LccA activity: 0.1 to 1 mM; for inhibition at 10000 µM: read-out: Inhibition / reduction in LccA activity
T1 construct: made in house; host or cells: Haloferax volcanii SB01 (H26 carrying plasmid pJAM822), secreted into culture broth
T1 sequence (D4GPK6 32-579): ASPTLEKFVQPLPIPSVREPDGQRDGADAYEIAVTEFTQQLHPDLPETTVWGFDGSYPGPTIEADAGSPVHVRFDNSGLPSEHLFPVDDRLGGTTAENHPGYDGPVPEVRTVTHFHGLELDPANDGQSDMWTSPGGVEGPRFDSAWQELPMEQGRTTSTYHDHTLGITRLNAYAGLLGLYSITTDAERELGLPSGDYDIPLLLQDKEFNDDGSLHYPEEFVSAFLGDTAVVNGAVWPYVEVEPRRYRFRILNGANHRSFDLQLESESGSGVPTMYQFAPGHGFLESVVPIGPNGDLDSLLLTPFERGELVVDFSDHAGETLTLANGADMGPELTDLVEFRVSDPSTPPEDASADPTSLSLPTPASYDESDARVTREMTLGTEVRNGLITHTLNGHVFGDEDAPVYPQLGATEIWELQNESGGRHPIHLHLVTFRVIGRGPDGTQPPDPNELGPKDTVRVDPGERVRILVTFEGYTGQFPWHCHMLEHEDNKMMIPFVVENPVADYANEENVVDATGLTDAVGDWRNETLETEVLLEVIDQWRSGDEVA

[2] = literature; cited from earlier work
[3] = comparator laccase-like enzymes, literature, cited from earlier work
[4] = comparator laccase-like enzymes, literature, cited from earlier work; remark: listed apart in the source
[5] = Laccase activity assay, oxidation of SGZ (syringaldazine)
Procedure: LccA (51 μg·ml^−1) activity was assayed at different temperatures (22° to 70° C.) in T buffer with 185 mM NaCl using SGZ (1 mM) as the substrate. […] LccA activity was assayed with SGZ (●) from pH 6 to 11 and with ABTS (◯) from pH 3 to 8 at 45° C. using following buffers: 100 mM sodium acetate for pH 3 to 6, 25 mM Tris-HCl for pH 7 to 10, and 25 mM glycine-NaOH for pH 11. Activity is expressed as percent relative to oxidation of ABTS at pH 6. […] Purified enzyme (50.6 μg·ml^−1) was pre-incubated in T buffer supplemented with 185 mM NaCl at temperatures from 37° to 70° C. for up to 60 h, as indicated. […] Activity is presented as percent relative to incubation on ice (37° C. (●), 45° C. (▪), 50° C. (▴), 55° C. (♦), 60° C. (◯), 65° C. (□) and 70° C. (Δ)); FIG. 6E-Salt tolerance of LccA protein. Purified enzyme (16.5 μg·ml^−1) was pre-incubated for 30 min in T buffer at pH 8.4 supplemented with different concentrations of NaCl (0 to 1.4 M) as indicated. Samples were diluted to a final concentration 4.12 μg·ml^−1 protein and 185 mM NaCl in T buffer and assayed for SGZ oxidizing activity under standard conditions. Residual activity was calculated as percent relative to incubation at 185 mM NaCl. […] Enzyme (7.5 μg·ml^−1) was incubated in T buffer with 185 mM NaCl in the presence and absence of 25% (v/v) solvent (DMSO, DMF, ethanol and methanol) at room temperature for 90 min (white bar), 3 h (grey bar) and 24 h (black bar). […] Activity is calculated as percent relative to incubation without solvent.
Enzyme activity was determined by change in absorbance, in triplicate, by UV/Visible-spectroscopy using a BioTek Synergy HT multi-detection microplate reader with a 96-well plate. Oxidation of substrate was monitored by absorbance increase (ABTS at 420 nm with ε=36,000 M^−1 cm^−1; SGZ at 526 nm with ε=65,000 M^−1 cm^−1; DMP at 468 nm with ε=49,000 M^−1 cm^−1; guaiacol at 436 nm with ε=26,600 M^−1 cm^−1; ferrous ammonium sulfate at 315 nm with ε=2,200 M^−1 cm^−1) or decrease (bilirubin at 440 nm with ε=56,300 M^−1 cm^−1). Standard assay conditions were 185 mM NaCl at 45° C. with the following buffers and substrate concentrations: 100 mM sodium acetate buffer at pH 6.0 for ABTS (at 5 mM), DMP (at 2 mM) and guaiacol (at 5 mM); 25 mM Tris-HCl buffer at pH 8.4 for SGZ (at 1 mM); and 200 mM Tris-HCl buffer at pH 8.4 for bilirubin (0.45 mM). Copper sulfate (1 mM) was included for assay of DMP oxidation. Oxidation of ferrous ammonium sulphate (1 mM) was monitored at 315 nm (ε=2,200 M^−1 cm^−1) with and without salt (185 mM NaCl) in 100 mM MES (morpholineethanesulfonic acid) buffer at pH 5 as well as 25 mM Tris-HCl buffer at pH 7.0 and 8.4. One unit of enzyme activity is defined as the amount of enzyme that oxidizes 1 μmol of substrate per min at standard conditions. […] Kinetic parameters (Km, Vmax, and kcat) were determined using the Michaelis-Menten equation. […] All assays and protein purifications were performed at least in triplicate.
To further evaluate the catalytic properties of LccA, the temperature, pH and salt optima of the purified enzyme were determined using SGZ and/or ABTS as substrates.

[6] = compound 0.1 mM, 10 min at 45° C.
[7] = compound 1 mM, 10 min at 45° C.
[8] = compound 10 mM, 10 min at 45° C.

Molecule: O[C@@H](CS)[C@@H](O)CS (racemic) [DL-Dithiothretol]
- Inhibition of observed LccA activity [1]: strong inhibitors
- Relative Activity of LccA ([1]; compound 0.01 mM, 10 min at 45° C.): 90.5 ± 5.5%
- Relative Activity of LccA [1, 6]: u.d.
- Relative Activity of LccA [1, 7]: u.d.

Molecule: c1cnc2c(c1)ccc1cccnc12 [1,10-Phenanthroline]
- inhibition at 10000 µM ([1]; 10 mM): 90%
- Relative Activity of LccA [1, 7]: 85.3 ± 3.4%
- Relative Activity of LccA [1, 8]: 10.9 ± 3.9%

Molecule: c1ccc(-c2ccccn2)nc1 [2,2-Dipyridyl]
- Inhibition / reduction in LccA activity ([1]; 10 mM): 25%
- Relative Activity of LccA [1, 7]: 86.6 ± 3.3%
- Relative Activity of LccA [1, 8]: 75.2 ± 2.3%

Molecule: O=C(O)CN(CCN(CC(=O)O)CC(=O)O)CC(=O)O [EDTA]
- Inhibitory activity toward LccA [1]: no inhibitory activity
- Relative Activity of LccA [1]: 100.6 ± 1.8% and 106.3 ± 5.8% and 123.6 ± 3.2% and 123.7 ± 3.0%

Molecule: N[C@@H](CS)C(=O)O [L-Cysteine]
- Inhibition of observed LccA activity [1]: strong inhibitors
- Relative Activity of LccA [1, 6]: 83.0 ± 3.7%
- Relative Activity of LccA [1, 7]: u.d.^c

Molecule: NC(N)=S [Thiourea]
- inhibition at 10000 µM ([1]; 10 mM): 90%
- Relative Activity of LccA [1, 7]: 96.5 ± 3.9%
- Relative Activity of LccA [1, 8]: 9.5 ± 1.3%

Molecule: McoA [reference compound]
- Temperature optimum [2]: 70 °C

B1: CotA, Bacillus subtilis: Bacillus subtilis spore coat protein A with laccase activity (Martins et al., 2002) (protein, UniProt P07788 1-513, looked up)
Laccase: MTLEKFVDALPIPDTLKPVQQSKEKTYYEVTMEECTHQLHRDLPPTRLWGYNGLFPGPTIEVKRNENVYVKWMNNLPSTHFLPIDHTIHHSDSQHEEPEVKTVVHLHGGVTPDDSDGYPEAWFSKDFEQTGPYFKREVYHYPNQQRGAILWYHDHAMALTRLNVYAGLVGAYIIHDPKEKRLKLPSDEYDVPLLITDRTINEDGSLFYPSAPENPSPSLPNPSIVPAFCGETILVNGKVWPYLEVEPRKYRFRVINASNTRTYNLSLDNGGDFIQIGSDGGLLPRSVKLNSFSLAPAERYDIIIDFTAYEGESIILANSAGCGGDVNPETDANIMQFRVTKPLAQKDESRKPKYLASYPSVQHERIQNIRTLKLAGTQDEYGRPVLLLNNKRWHDPVTETPKVGTTEIWSIINPTRGTHPIHLHLVSFRVLDRRPFDIARYQESGELSYTGPAVPPPPSEKGWKDTIQAHAGEVLRIAATFGPYSGRYVWHCHILEHEDYDMMRPMDITDPHK
- Temperature optimum [2]: 75 °C
- kcat, SGZ [3]: 3.7 s⁻¹
- Km ([3]; read-out: Km, SGZ): 26 µM
- kcat, ABTS [4]: 16.8 s⁻¹
- Km ([4]; read-out: Km, ABTS): 106 µM

B2: LccA-StrepII: LccA with a C-terminal StrepII tag (-WSHPQFEK), purified from Hfx. volcanii SB01 (protein, UniProt D4GPK6 32-579, looked up)
Laccase: ASPTLEKFVQPLPIPSVREPDGQRDGADAYEIAVTEFTQQLHPDLPETTVWGFDGSYPGPTIEADAGSPVHVRFDNSGLPSEHLFPVDDRLGGTTAENHPGYDGPVPEVRTVTHFHGLELDPANDGQSDMWTSPGGVEGPRFDSAWQELPMEQGRTTSTYHDHTLGITRLNAYAGLLGLYSITTDAERELGLPSGDYDIPLLLQDKEFNDDGSLHYPEEFVSAFLGDTAVVNGAVWPYVEVEPRRYRFRILNGANHRSFDLQLESESGSGVPTMYQFAPGHGFLESVVPIGPNGDLDSLLLTPFERGELVVDFSDHAGETLTLANGADMGPELTDLVEFRVSDPSTPPEDASADPTSLSLPTPASYDESDARVTREMTLGTEVRNGLITHTLNGHVFGDEDAPVYPQLGATEIWELQNESGGRHPIHLHLVTFRVIGRGPDGTQPPDPNELGPKDTVRVDPGERVRILVTFEGYTGQFPWHCHMLEHEDNKMMIPFVVENPVADYANEENVVDATGLTDAVGDWRNETLETEVLLEVIDQWRSGDEVA
modifications: C-terminal StrepII tag
- Specific activity lower than US02 purified LccA ([5]; SGZ oxidation): over 20 fold
- Specific activity, SGZ oxidation ([5]; purified from culture broth of Hfx. volcanii SB01 (C-terminal StrepII tag), final MonoQ 10/10 pH 8.4): 1.3 U·mg^−1
